SMILES strings stand for the structures.

Here are results for 22 compounds from the supplement of paper PMC10949913.

Holding throughout (conditions): 48 h
Assay [1] has as its system CU-ACC1. In words: AC50 viability; higher = less potent. A digest of the protocol: (§1)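 Three adrenocortical carcinoma cell lines were exposed for 48 h to library compounds at 11 concentrations in 1,536-well plates, then read by CellTiter-Glo luminescence. Signals were scaled per plate against vehicle and empty-well controls. From fitted concentration-response curves of inhibitory or non-responding classes alone, AC50 and area under the curve were obtained.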

For assay [2], the system named is NCI-H295R. In words: AC50 viability; higher = less potent. A digest of the protocol:
as §1

In assay [3] the test system is CU-ACC1. In words: area under concentration-response curve (viability) (AUC (a.u.)); higher = less active. A digest of the protocol:
as §1

The subject of assay [4] is NCI-H295R. The description is as above. A digest of the protocol: as §1
The next assay concerns CU-ACC2. The description is as above. A digest of the protocol: as §1

Take `CNC(=O)c1cc(Oc2ccc(NC(=O)Nc3ccc(Cl)c(C(F)(F)F)c3)c(F)c2)ccn1`: the values for the AC50 viability with CU-ACC1 [1] and with NCI-H295R [2] were 37.2 µM and 20.9 µM, respectively. Also, the “area under concentration-response curve” value with CU-ACC1 [3] stood at 436; with NCI-H295R [4], 545; in the assay with CU-ACC2, 596.
Consider `CC1=C(C)C2=C(S1)[N]3C(=NN=C3[C@H](CC(=O)OC(C)(C)C)/N=C2/C4=CC=C(Cl)C=C4)C`, for which the values for the AC50 viability in the assay on CU-ACC1 [1] and with NCI-H295R [2] were 18.6 µM and 16.6 µM, respectively. For the same compound, the “area under concentration-response curve” value amounted to 432 with CU-ACC1 [3], 520 with NCI-H295R [4] and 553 with CU-ACC2.
On to `NC1=NC=C(C=C1)C2=CC=C3N=CC\4=C(N(C(=O)\C=C4)C5=CC(=CC=C5)C(F)(F)F)C3=C2`, for which the AC50 viability with CU-ACC1 [1] stood at 0.235 µM; in the assay on NCI-H295R [2], 0.0833 µM. For the same compound, the “area under concentration-response curve” value was 314 with CU-ACC1 [3], 294 in the assay with NCI-H295R [4] and 387 in the assay on CU-ACC2.
Consider `NC(=O)c1ccc2[nH]c(-c3ccc(Oc4ccc(Cl)cc4)cc3)nc2c1`, for which the AC50 viability in the assay with CU-ACC1 [1] turned out to be 33.2 µM; in the assay with NCI-H295R [2], 26.3 µM. The “area under concentration-response curve” value is 450 with CU-ACC1 [3], 507 in the assay with NCI-H295R [4] and 573 in the assay on CU-ACC2.
For `O=C(NCCCNC(=O)c1cccnc1O)c1cc(-c2ccccc2)on1`, in that order: 20.9 µM, 18.6 µM, 481, 443 and 574.
As to `COC1=C(OCCCN2CCOCC2)C=CC\3=C1/N=C(/NC(=O)C4=CN=C(N)N=C4)N5CC/N=C35`, the AC50 viability worked out at 0.0382 µM with CU-ACC1 [1] and 0.108 µM with NCI-H295R [2]. In addition, the “area under concentration-response curve” value in the assay on CU-ACC1 [3] is 431; in the assay with NCI-H295R [4], 452; with CU-ACC2, 542.
For `CCOc1cc(CC(=O)N[C@@H](CC(C)C)c2ccccc2N2CCCCC2)ccc1C(=O)O`, in that order: 0.0059 µM, 5.25 µM, 221, 188 and 240.
For `O=[S+]([O-])(Nc1ccc(-c2cccnc2)c2cccnc12)c1cccc(C(F)(F)F)c1`, in that order: 4.68 µM, 4.17 µM, 456, 486 and 595.
For the compound `CC(C)C[C@H](NC(=O)[C@H](Cc1ccccc1)NC(=O)c1cnccn1)B(O)O`, the figures for the AC50 viability in the assay on CU-ACC1 [1] and in the assay on NCI-H295R [2] were 0.0372 µM and 0.0263 µM, respectively. Also, the “area under concentration-response curve” value with CU-ACC1 [3] was found to be 290; with NCI-H295R [4], 345; in the assay on CU-ACC2, 327.
The like results for `CC(=O)Nc1cc(Oc2ccc3c(nc(Nc4ccc(F)cc4F)n3C)c2C)ccn1` were, in that order, 18.6 µM, 11.8 µM, 484, 482 and 544.
The like results for `O=C(Nc1cccnc1)N1CCC(Cc2cccc(Oc3ccc(C(F)(F)F)cn3)c2)CC1` were, in that order, 5.25 µM, 18.6 µM, 406, 500 and 559.
The like results for `Cc1nnn(C)c1-c1cnc2c3ccc(C(C)(C)O)cc3n([C@H](c3ccccc3)C3CCOCC3)c2c1` were, in that order, 0.468 µM, 0.0166 µM, 416, 425 and 482.
As to `C[S+](=O)([O-])N1CCc2c(-c3cnc(N)nc3)nc(N3CCOCC3)nc21`, the AC50 viability in the assay on CU-ACC1 [1] is 1.18 µM; in the assay on NCI-H295R [2], 0.417 µM. Further, the figures for the “area under concentration-response curve” value in the assay on CU-ACC1 [3], in the assay with NCI-H295R [4] and in the assay on CU-ACC2 were 403, 389 and 345, respectively.
For `CCC[C@H](NC(=O)[C@@H]1[C@H]2CCC[C@H]2CN1C(=O)[C@@H](NC(=O)[C@@H](NC(=O)c1cnccn1)C1CCCCC1)C(C)(C)C)C(=O)C(=O)NC1CC1`, the AC50 viability with CU-ACC1 [1] amounted to 0.00105 µM; with NCI-H295R [2] it was 33.2 µM. Besides, the “area under concentration-response curve” value is 333 in the assay on CU-ACC1 [3], 285 with NCI-H295R [4] and 299 in the assay on CU-ACC2.
On to `Cn1cc(/C=C/C(=O)c2cccc(F)c2)cc1/C=C/C(=O)NO`, for which the AC50 viability in the assay with CU-ACC1 [1] amounted to 5.9 µM; with NCI-H295R [2], 8.33 µM. Further, the “area under concentration-response curve” value worked out at 428 in the assay on CU-ACC1 [3], 439 in the assay with NCI-H295R [4] and 513 with CU-ACC2.
For the compound `CC(C)(C)NC(=O)c1cncn1C1CCN(c2ccc(-c3nnc(C(F)(F)F)o3)cn2)CC1`, the figures for the AC50 viability in the assay on CU-ACC1 [1] and in the assay on NCI-H295R [2] were 1.66 µM and 7.42 µM, respectively. In addition, the “area under concentration-response curve” value came out at 381 in the assay with CU-ACC1 [3], 475 in the assay with NCI-H295R [4] and 539 in the assay with CU-ACC2.
With `C[C@@H](Oc1ccc2[nH]nc(/C=C/c3cnn(CCO)c3)c2c1)c1c(Cl)cncc1Cl`, the AC50 viability came out at 16.6 µM in the assay with CU-ACC1 [1] and 14.8 µM in the assay on NCI-H295R [2]. Besides, the “area under concentration-response curve” value was found to be 481 in the assay on CU-ACC1 [3], 473 in the assay on NCI-H295R [4] and 519 with CU-ACC2.
The like results for `COc1cc(OC2CCN(C)CC2)ccc1Nc1ncc2c(n1)n(C1CCCC1)c(=O)n2C` were, in that order, 26.3 µM, 23.5 µM, 447, 528 and 619.
On to `COc1ccc(C[C@@H](C)[C@@H](C)Cc2ccc(OC)c(OC)c2)cc1OC`, for which the AC50 viability with CU-ACC1 [1] stood at 4.68 µM; in the assay on NCI-H295R [2] it was 20.9 µM. For the same compound, the “area under concentration-response curve” value in the assay on CU-ACC1 [3] was 452; with NCI-H295R [4] it was 480; in the assay on CU-ACC2, 536.
In the case of `COC1(c2sc3c(N4CCOCC4)nc(-c4cnc(N)nc4)nc3c2C)COC1`, the AC50 viability in the assay with CU-ACC1 [1] was determined as 0.525 µM; in the assay on NCI-H295R [2], 0.372 µM. Moreover, the “area under concentration-response curve” value in the assay with CU-ACC1 [3] was found to be 287; in the assay with NCI-H295R [4], 322; in the assay with CU-ACC2 it was 374.
The like results for `CC(C)(O)C[S+](=O)([O-])Nc1ccc2c(c1)CCN(C(=O)COc1cccnc1)C2` were, in that order, 0.295 µM, 1.05 µM, 334, 483 and 390.
For the compound `C=C1C(=O)O[C@H]2C[C@H](C)C(/C=C/C(C)=O)=CC[C@H]12`, the figures for the AC50 viability in the assay on CU-ACC1 [1] and in the assay on NCI-H295R [2] were 9.34 µM and 18.6 µM, respectively. Moreover, the entries for the “area under concentration-response curve” value in the assay with CU-ACC1 [3], with NCI-H295R [4] and in the assay on CU-ACC2 were 450, 519 and 529, respectively.
